According to US11504268B2, “Wound treatment system” (Ethicon, Inc., priority 2018, dated 2022):

Test system: S. aureus
Assay: Vapor-phase triclosan delivery to model wound (inoculated Petri dishes), bacterial growth after incubation
Type: cell-based
Conditions: for Bacterial Growth after 37° C. incubation; Exposure to wound treatment system: 3 hr / Bacterial Growth after 37° C. incubation; Exposure to wound treatment system: Additional 17 hr: inoculated
Protocol: The experimental data were obtained with a model air-activated heating elements (7 Hour Hand Warmers, Grabber, Grand Rapids, Mich.) surrounding a model wound represented by inoculated Petri dishes with 5 ml of 45C TSA agar containing about 6 log CFU/ml S. aureus. For testing, from 1 to 8 triclosan strips, each containing 9 mg of triclosan, were positioned on heating elements in proximity to inoculated Petri dishes. The assembly was covered creating an enclosed compartment around the inoculated Petri dishes, with triclosan patches within thusly formed compartment on the heating elements but not in contact with the inoculated Petri dishes. The inoculated Petri dishes were taken out after 3 hr and 17 hour exposure at ambient temperature (of which heating packs provided about 7 hours of heat) and incubated at 37° C. for 24 hr to allow the bacterial colonies, if any, to grow and be evaluated. Controls tested included the same model without any heating elements; heating elements in a system with no triclosan; no heating, no triclosan for confirming inoculation and bacterial growth, no heating no triclosan no inoculation for confirming agar was not contaminated.

Oc1cc(Cl)ccc1Oc1ccc(Cl)cc1Cl [triclosan]
Bacterial Growth after 37° C. incubation; Exposure to wound treatment system: 3 hr (0 heating elements (no heat), 1 triclosan patch, 3 hr exposure): Full growth | Bacterial Growth after 37° C. incubation; Exposure to wound treatment system: Additional 17 hr (0 heating elements (no heat), 1 triclosan patch, 17 hr exposure): Full | Bacterial Growth after 37° C. incubation; Exposure to wound treatment system: 3 hr (0 heating elements (no heat), 2 triclosan patches, 3 hr exposure): Full growth | Bacterial Growth after 37° C. incubation; Exposure to wound treatment system: Additional 17 hr (0 heating elements (no heat), 2 triclosan patches, 17 hr exposure): Full | Bacterial Growth after 37° C. incubation; Exposure to wound treatment system: 3 hr (0 heating elements (no heat), 4 triclosan patches, 3 hr exposure): Partial | Bacterial Growth after 37° C. incubation; Exposure to wound treatment system: Additional 17 hr (0 heating elements (no heat), 4 triclosan patches, 17 hr exposure): Minimal | Bacterial Growth after 37° C. incubation; Exposure to wound treatment system: 3 hr (0 heating elements (no heat), 8 triclosan patches, 3 hr exposure): partial growth | Bacterial Growth after 37° C. incubation; Exposure to wound treatment system: Additional 17 hr (0 heating elements (no heat), 8 triclosan patches, 17 hr exposure): full antibacterial effect and NONE | Bacterial Growth after 37° C. incubation; Exposure to wound treatment system: 3 hr (4 heating elements, 1 triclosan patch, 3 hr exposure): NONE | Bacterial Growth after 37° C. incubation; Exposure to wound treatment system: Additional 17 hr (4 heating elements, 1 triclosan patch, 17 hr exposure): NONE | Bacterial Growth after 37° C. incubation; Exposure to wound treatment system: 3 hr (4 heating elements, 2 triclosan patches, 3 hr exposure (tests 3 and 4)): NONE | Bacterial Growth after 37° C. incubation; Exposure to wound treatment system: Additional 17 hr (4 heating elements, 2 triclosan patches, 17 hr exposure (tests 3 and 4)): NONE | Bacterial Growth after 37° C. incubation; Exposure to wound treatment system: 3 hr (4 heating elements, 4 triclosan patches, 3 hr exposure): NONE | Bacterial Growth after 37° C. incubation; Exposure to wound treatment system: Additional 17 hr (4 heating elements, 4 triclosan patches, 17 hr exposure): NONE | Bacterial Growth after 37° C. incubation; Exposure to wound treatment system: 3 hr (4 heating elements, 8 triclosan patches (9 mg each), 3 hr exposure): NONE | Bacterial Growth after 37° C. incubation; Exposure to wound treatment system: Additional 17 hr (4 heating elements, 8 triclosan patches (9 mg each), 17 hr exposure): NONE | bactericidal effect on S. aureus with vapor transfer of triclosan (in presence of heat elements, 1 strip of triclosan): full bactericidal effect | inhibition of bacterial growth (tests #1-4, 8: 4 heating elements, from 1 to 8 triclosan patches): full inhibition of bacterial growth | antibacterial effect (without heat elements, most tests): lack of antibacterial effect
